The values below come from patent US20240391882A1 (Mirati Therapeutics, Inc., priority 2023, published 2024).

A word on the IC50: it is the concentration at which inhibition is half-maximal.

Where two headings read alike, the source gives them in different places. A value given as a limit tells only on which side of the number the result lay.

Holding throughout (format): cell-based
Test [1] has as its system pAKT in T47D (PI3Kα H1047R mutant) cells. In words: Inhibition of pAKT (alphaLISA Surefire Ultra AKT 1/2/3 pS473) in T47D cells. Particulars: Homo sapiens, read-out: T47D (H1047R) pAKT 24 hr (IC50). Summed up:
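AlphaLISA read-out of AKT pS473 in lysates after roughly 24 h compound exposure at 37° C in HBSS. Ten concentrations, 1:4 dilutions from a 10.4 μm top dose. Percent of control uses alpelisib at 3.125 μm as background and DMSO as vehicle; four-parameter curve gives IC50.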

Test [2] has as its system SKBR3 (PI3Kα wild type) cells. The test is described as follows: Cell viability (CellTiter-Glo 2.0) in SKBR3 cells. Particulars: Homo sapiens. The protocol:
This Example illustrates that representative compounds of the invention decrease the viability of cells.
The ability of a compound of Formula (I) to decrease the viability of cells was measured using CellTiter-Glo 2.0 (CTG) Luminescent Cell Viability Assay (#G9241) obtained from Promega (Madison, WI).
To prepare assay plates for viability assays, cells were trypsinized, resuspended in fresh media, and viable cells were counted utilizing trypan blue exclusion. T47D, SKBR3, or MKN1 cells were seeded at 1000 cells in 30 μl per well in a solid white flat bottom 384 cell culture plate (Perkin Elmer #6007680) and incubated at 37° C. overnight.
Assay day 1, cells were dosed using an Echo Liquid Handler (Beckman Coulter) with compounds at a 10 μm starting concentration and serially diluted (1:4) for a total of 10 concentrations. Cells were incubated for approximately 72 hours with the compounds (solubilized in DMSO) at 37° C. After 72 hours of treatment, cell plates were equilibrated to room temperature before adding 15 μl of CTG to each well, plates were then covered in aluminum foil to protect from light, incubated at room temperature for 30 minutes on a microtiter plate shaker, and luminescence readings were collected using a CLARIOstar microplate reader (BMG Labtech, Germany). Percent of vehicle control values were plotted as log(inhibitor) vs. response—Variable slope (four parameters) for curve fitting and IC50 values were determined using XLfit.

For test [3], the system named is T47D (PI3Kα H1047R mutant) cells. In words: Cell viability (CellTiter-Glo 2.0) in T47D cells. The note with it: Homo sapiens, approximately 72 hours. Summed up: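 IC50 values derive from four-parameter fits of CellTiter-Glo luminescence expressed as percent of vehicle control. Cells (T47D or SKBR3) were plated at 1000/well the day before dosing and incubated about 72 h at 37° C with a 10-point, 1:4 series starting at 10 μm.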

Setting [4] is: T47D (PI3Kα H1047R mutant) cells, 24 hr compound incubation, alphaLISA pS473.
Setting [5] is: SK-BR-3, SKBR3 (PI3Kα wild type) cells, approximately 72 hours, CellTiter-Glo 2.0, read-out: SKBR3 (WT) Viability IC50.
Setting [6] is: SK-BR-3, 72 h, read-out: SKBR3 (WT) Viability IC50 (nM).

Turning to `Cc1cc([C@@H](C)Nc2ccc(Cl)nc2C(=O)O)c2nc(N3C[C@H]4COC[C@@H]4C3)c(C#N)nc2c1` (single isomer, unassigned) [Example 229A], the IC50 is 0.55 nM in test [1] (setting [4]); 3080 nM in test [2] (setting [5]); 16.6 nM in test [3] (T47D, 72 h).
The corresponding values for `Cc1cc([C@@H](C)Nc2ccc(Cl)nc2C(=O)O)c2nc(N3CCC[C@H]([C@H](C)O)C3)c(C#N)nc2c1` [Example 261A, 6-chloro-3-(((R)-1-(2-cyano-3-((S)-3-((S)-1-hydroxyethyl)piperidin-1-yl)-7-methylquinoxalin-5-yl)ethyl)amino)picolinic acid] are 3.2 nM, > 10000 nM and 79 nM.
The corresponding values for `Cc1cc([C@@H](C)Nc2ccc(Cl)nc2C(=O)O)c2nc(N3CCC[C@H]([C@@H](C)O)C3)c(C#N)nc2c1` [Example 261B, 6-chloro-3-(((R)-1-(2-cyano-3-((S)-3-((R)-1-hydroxyethyl)piperidin-1-yl)-7-methylquinoxalin-5-yl)ethyl)amino)picolinic acid] are 2.6 nM, > 10000 nM and 98 nM.
On to `Cc1cc([C@@H](C)Nc2ccc(Cl)nc2C(=O)O)c2nc(N3CCC(N4CCCCC4=O)CC3)c(C#N)nc2c1` [Example 202, (R)-6-chloro-3-((1-(2-cyano-7-methyl-3-(2-oxo-[1,4′-bipiperidin]-1′-yl)quinoxalin-5-yl)ethyl)amino)picolinic acid], for which the IC50 in test [1] (setting [4]) is 1.4 nM; in test [2] (setting [5]), 9920 nM; in test [3] (T47D, 72 h) it was 76.4 nM.
For `Cc1cc([C@@H](C)Nc2ccc(Cl)nc2C(=O)O)c2nc(N3C[C@H](C)OC[C@@H]3C)c(C#N)nc2c1` [Example 237B, 6-chloro-3-(((R)-1-(2-cyano-3-((2S,5S)-2,5-dimethylmorpholino)-7-methylquinoxalin-5-yl)ethyl)amino)picolinic acid], the IC50 came to 6.1 nM in test [1] (setting [4]); 3800 nM in test [2] (setting [5]); 152 nM in test [3] (T47D, 72 h).
Consider `Cc1cc(C(C)Nc2ccccc2C(=O)O)c2nc(N3Cc4ccccc4C3)c(C#N)nc2c1` (stereo not shown) [Example 2, 2-((1-(2-cyano-3-(isoindolin-2-yl)-7-methylquinoxalin-5-yl)ethyl)amino)benzoic acid], for which the IC50 in test [1] (setting [4]) was 18.2 nM; in test [2] (setting [5]), > 10000 nM; in test [3] (T47D, 72 h), 631 nM.
For the compound `Cc1cc([C@@H](C)Nc2ccc(Cl)nc2C(=O)O)c2nc(N3CCC(F)(F)CC3)c(C#N)nc2c1` [Example 5, (R)-6-chloro-3-((1-(2-cyano-3-(4,4-difluoropiperidin-1-yl)-7-methylquinoxalin-5-yl)ethyl)amino)picolinic acid], the IC50 in test [1] (T47D, 24 h) turned out to be 0.8 nM; in test [2] (setting [6]) it was 3970 nM; in test [3], 37.3 nM.
The corresponding values for `Cc1cc([C@@H](C)Nc2ccccc2C(=O)O)c2nc(N3Cc4ccccc4C3)c(C#N)nc2c1` [Example 6, (R)-2-((1-(2-cyano-3-(isoindolin-2-yl)-7-methylquinoxalin-5-yl)ethyl)amino)benzoic acid] are 5 nM, > 10000 nM and 294 nM.
With `Cc1cc([C@@H](C)Nc2ccc(Cl)nc2C(=O)O)c2nc(N3CC4CC(C3)C4(F)F)c(C#N)nc2c1` [Example 7, 6-chloro-3-(((1R)-1-(2-cyano-3-(6,6-difluoro-3-azabicyclo[3.1.1]heptan-3-yl)-7-methylquinoxalin-5-yl)ethyl)amino)picolinic acid], the IC50 was 0.8 nM in test [1] (setting [4]); > 10000 nM in test [2] (setting [5]); 59.8 nM in test [3] (T47D, 72 h).
Take `C[C@@H](Nc1ccc(Cl)nc1C(=O)O)c1cc(C(F)F)cc2nc(C#N)c(N3CCOCC3)nc12` [Example 231, (R)-6-chloro-3-((1-(2-cyano-7-(difluoromethyl)-3-morpholinoquinoxalin-5-yl)ethyl)amino)picolinic acid]: the IC50 in test [1] (setting [4]) is 1.3 nM; in test [2] (setting [5]), > 10000 nM; in test [3] (T47D, 72 h) it was 25.8 nM.
As for `Cc1cc([C@@H](C)Nc2ccc(Cl)nc2C(=O)O)c2nc(N3CCCC(F)(F)CC3)c(C#N)nc2c1` [Example 847, (R)-6-chloro-3-((1-(2-cyano-3-(4,4-difluoroazepan-1-yl)-7-methylquinoxalin-5-yl)ethyl)amino)picolinic acid], the IC50 in test [1] (setting [4]) is 1.8 nM; in test [2] (setting [5]) it was 4940 nM; in test [3] (T47D, 72 h), 59 nM.
The corresponding values for `Cc1cc([C@@H](C)Nc2ccc(Cl)nc2C(=O)O)c2nc(N3C[C@H](CO)C(F)(F)C3)c(C#N)nc2c1` (single isomer, unassigned) [Example 210A] are 0.69 nM, > 10000 nM and 135 nM.
The corresponding values for `Cc1cc([C@@H](C)Nc2ccc(Cl)nc2C(=O)O)c2nc(N3CCN(c4cc(C)no4)CC3)c(C#N)nc2c1` [Example 200, (R)-6-chloro-3-((1-(2-cyano-7-methyl-3-(4-(3-methylisoxazol-5-yl)piperazin-1-yl)quinoxalin-5-yl)ethyl)amino)picolinic acid] are 1.2 nM, 5470 nM and 17.2 nM.
The corresponding values for `Cc1cc([C@@H](C)Nc2ccc(Cl)nc2C(=O)O)c2nc(N3CC[C@]4(CCCO4)C3)c(C#N)nc2c1` (single isomer, unassigned) [Example 253B] are 5.8 nM, 5140 nM and 113 nM.
For the compound `Cc1cc([C@@H](C)Nc2ccc(Cl)nc2C(=O)O)c2nc(N3CCCC(C(F)(F)F)C3)c(C#N)nc2c1` (stereo partly drawn) [Example 45, 6-chloro-3-(((1R)-1-(2-cyano-7-methyl-3-(3-(trifluoromethyl)piperidin-1-yl)quinoxalin-5-yl)ethyl)amino)picolinic acid], the IC50 in test [1] (setting [4]) is 6.8 nM; in test [2] (setting [5]), > 10000 nM; in test [3] (T47D, 72 h) it was 115 nM.
The corresponding values for `Cc1cc([C@@H](C)Nc2ccc(Cl)nc2C(=O)O)c2nc(N3CCC(F)(F)C3)c(C#N)nc2c1` [Example 70, (R)-6-chloro-3-((1-(2-cyano-3-(3,3-difluoropyrrolidin-1-yl)-7-methylquinoxalin-5-yl)ethyl)amino)picolinic acid] are 2.6 nM, 9650 nM and 31 nM.
The corresponding values for `Cc1cc([C@@H](C)Nc2ccc(Cl)nc2C(=O)O)c2nc(NCC3(F)CC3)c(C#N)nc2c1` [Example 23, (R)-6-chloro-3-((1-(2-cyano-3-(((1-fluorocyclopropyl)methyl)amino)-7-methylquinoxalin-5-yl)ethyl)amino)picolinic acid] are 0.7 nM, > 10000 nM and 61.9 nM.
On to `COC[C@@H]1CN(c2nc3c([C@@H](C)Nc4ccc(Cl)nc4C(=O)O)cc(C)cc3nc2C#N)CCO1` [Example 236A, 6-chloro-3-(((R)-1-(2-cyano-3-((S)-2-(methoxymethyl)morpholino)-7-methylquinoxalin-5-yl)ethyl)amino)picolinic acid], for which the IC50 was 0.89 nM in test [1] (setting [4]); > 10000 nM in test [2] (setting [5]); 52.8 nM in test [3] (T47D, 72 h).
The corresponding values for `COC[C@H]1CN(c2nc3c([C@@H](C)Nc4ccc(Cl)nc4C(=O)O)cc(C)cc3nc2C#N)CC1(F)F` (single isomer, unassigned) [Example 211B] are 2.6 nM, 6800 nM and 2.7 nM.
Take `Cc1cc([C@@H](C)Nc2ccc(Cl)nc2C(=O)O)c2nc(N3CCC(C)(C(F)(F)F)CC3)c(C#N)nc2c1` [Example 66, (R)-6-chloro-3-((1-(2-cyano-7-methyl-3-(4-methyl-4-(trifluoromethyl)piperidin-1-yl)quinoxalin-5-yl)ethyl)amino)picolinic acid]: the IC50 turned out to be 7680 nM in test [2] (setting [5]) and 78 nM in test [3] (T47D, 72 h).
The corresponding values for `Cc1cc([C@@H](C)Nc2ccc(Cl)nc2C(=O)O)c2nc(NCC3(C)CC3(F)F)c(C#N)nc2c1` (stereo partly drawn) [Example 74, 6-chloro-3-(((1R)-1-(2-cyano-3-(((2,2-difluoro-1-methylcyclopropyl)methyl)amino)-7-methylquinoxalin-5-yl)ethyl)amino)picolinic acid] are > 10000 nM and 95 nM.
